This test addresses T1, crosslinked smooth muscle actomyosin (chicken gizzard smooth muscle myosin subfragment-1 crosslinked to cardiac or skeletal actin) (Gallus gallus, UniProt P10587).
T1 construct: chicken gizzard smooth muscle myosin subfragment-1; from tissue; host or cells: chicken gizzard
Nature of the test: Lead optimization pyruvate kinase/horseradish peroxidase/pyruvate oxidase-coupled ATPase assay (compound dose response). Conditions: read-out: IC50 Arithmetic Mean. The class given is biochemical. In a few lines:
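The ATPase used chicken gizzard smooth muscle myosin S1 chemically crosslinked to cardiac or skeletal actin, titrated to a set hydrolysis rate. It was coupled via pyruvate kinase/pyruvate oxidase/HRP in 12 mM K-PIPES pH 7.00 (22 °C) with 0.15 mM ATP, 2 mM MgCl2, 100 mM KCl and 0.1 mM Amplex Red. Fluorescence was read at ex 480/em 615 nm, and IC50 came from a 4-parameter fit.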

Each structure is given as a SMILES string.

For orientation: IC50 means the point on the concentration scale where inhibition reaches its midpoint. Consider `CCc1ccc(NC(=O)OC(C)CN(C)C(=O)NCc2ccccc2Cl)cc1` (stereo not shown) [[2-({[(2-chlorophenyl)methyl]amino}-N-methylcarbonylamino)-isopropoxy]-N-(4-ethylphenyl)carboxamide], for which the IC50 came to 8520 nM.

Consider `CCc1ccc(NC(=O)OCC2(C(=O)NCc3cccc(Cl)c3Cl)CCN(C(=O)CN)CC2)cc1` [[(1-(2-aminoacetyl)-4-{N-[(2,3-dichlorophenyl)methyl]carbamoyl}(4-piperidyl))methoxy]-N-(4-ethylphenyl)carboxamide], for which the IC50 was determined as 88 nM.

As for `NCC(=O)N1CCC(COC(=O)Nc2ccc(C(F)(F)F)cc2)(C(=O)NCc2cccc(Cl)c2Cl)CC1` [[(1-(2-aminoacetyl)-4-{N-[(2,3-dichlorophenyl)methyl]carbamoyl}(4-piperidyl))methoxy]-N-[4-(trifluoromethyl)phenyl]carboxamide], the 50% inhibitory concentration (IC50) was 284 nM.

As for `CCc1ccc(NC(=O)OCC2(C(=O)NCc3cccc(F)c3F)CCN(C(=O)CN)CC2)cc1` [[(1-(2-aminoacetyl)-4-{N-[(2,3-difluorophenyl)methyl]carbamoyl}(4-piperidyl))methoxy]-N-(4-ethylphenyl)carboxamide], the IC50 came out at 164 nM.

Take `CCc1ccc(NC(=O)OCC2(C(=O)NCc3ccc(Cl)cc3Cl)CCN(C(=O)CN)CC2)cc1` [[(1-(2-aminoacetyl)-4-{N-[(2,4-dichlorophenyl)methyl]carbamoyl}(4-piperidyl))methoxy]-N-(4-ethylphenyl)carboxamide]: the IC50 came out at 197 nM.

For the molecule `CCc1ccc(NC(=O)OCC2(C(=O)NCc3ccc(C)cc3C)CCN(C(=O)CN)CC2)cc1` [[(1-(2-aminoacetyl)-4-{N-[(2,4-dimethylphenyl)methyl]carbamoyl}(4-piperidyl))methoxy]-N-(4-ethylphenyl)carboxamide], the IC50 is 576 nM.

As to `CCc1ccc(NC(=O)OCC2(C(=O)NCc3ccccc3Br)CCN(C(=O)CN)CC2)cc1` [[(1-(2-aminoacetyl)-4-{N-[(2-bromophenyl)methyl]carbamoyl}(4-piperidyl))methoxy]-N-(4-ethylphenyl)carboxamide], the IC50 worked out at 146 nM.

For the molecule `CCc1ccc(NC(=O)OCC2(C(=O)NCc3ccc(F)cc3Cl)CCN(C(=O)CN)CC2)cc1` [[(1-(2-aminoacetyl)-4-{N-[(2-chloro-4-fluorophenyl)methyl]carbamoyl}(4-piperidyl))methoxy]-N-(4-ethylphenyl)carboxamide], the IC50 came out at 158 nM.

With `CCc1ccc(NC(=O)OCC2(C(=O)NCc3ccccc3CC)CCN(C(=O)CN)CC2)cc1` [[(1-(2-aminoacetyl)-4-{N-[(2-ethylphenyl)methyl]carbamoyl}(4-piperidyl))methoxy]-N-(4-ethylphenyl)carboxamide], the concentration for half-maximal inhibition (IC50) came out at 951 nM.

`CCc1ccc(NC(=O)OCC2(C(=O)NCc3cccnc3C)CCN(C(=O)CN)CC2)cc1` [[(1-(2-aminoacetyl)-4-{N-[(2-methyl(3-pyridyl))methyl]carbamoyl}(4-piperidyl))methoxy]-N-(4-ethylphenyl)carboxamide]: the IC50 was determined as 9440 nM.

As to `CCc1ccc(NC(=O)OCC2(C(=O)NCc3cccc(Cl)c3F)CCN(C(=O)CN)CC2)cc1` [[(1-(2-aminoacetyl)-4-{N-[(3-chloro-2-fluorophenyl)methyl]carbamoyl}(4-piperidyl))methoxy]-N-(4-ethylphenyl)carboxamide], the IC50 was found to be 99 nM.

For the molecule `NCC(=O)N1CCC(COC(=O)Nc2ccc(C(F)(F)F)cc2)(C(=O)NCc2cccc(Cl)c2F)CC1` [[(1-(2-aminoacetyl)-4-{N-[(3-chloro-2-fluorophenyl)methyl]carbamoyl}(4-piperidyl))methoxy]-N-[4-(trifluoromethyl)phenyl]carboxamide], the IC50 came out at 370 nM.

As to `CCc1ccc(NC(=O)OCC2(C(=O)NCc3cccc(Cl)c3C)CCN(C(=O)CN)CC2)cc1` [[(1-(2-aminoacetyl)-4-{N-[(3-chloro-2-methylphenyl)methyl]carbamoyl}(4-piperidyl))methoxy]-N-(4-ethylphenyl)carboxamide], the half-maximal inhibitory concentration (IC50) was determined as 83 nM.
